Source: article PMC10504015, “Design, synthesis, and enzyme inhibition evaluation of some novel Mono- and Di-O-β-D-Glycopyranosyl Chalcone analogues with molecular docking studies” (Turkish Journal of Chemistry, 2022)

Assays:
Type in all cases: biochemical
tyrosinase = tyrosinase (Agaricus bisporus, UniProt C7FF04); test: Tyrosinase from mushroom inhibitory effect (L-DOPA substrate, 475 nm); details: phosphate buffer pH 6.8, read-out: IC50 on tyrosinase (Tyr)
Protocol: The tyrosinase inhibitory effects of the newly synthesized compounds were performed using microplate reader with minor modifications according to the standard method. […] The activity of tyrosinase solution was adjusted as 250 U/mL in phosphate buffer (pH 6.8, 100 mM). For each wells, 100 μL buffer (pH 6.8, 100 mM), 20 μL of tyrosinase (0.2 U/mL), and 20 μL of compounds were added and incubated 20 min. After incubation, 20 μL of 3,4-dihydroxy-L-phenylalanine (3 mM) was pipetted into wells. Absorbance was measured at 475 nm.

AChE = AChE (Electrophorus electricus, UniProt O42275); details: electric eel AChE, Tris-HCl buffer pH 8.0
Chain of AChE (O42275 24-633): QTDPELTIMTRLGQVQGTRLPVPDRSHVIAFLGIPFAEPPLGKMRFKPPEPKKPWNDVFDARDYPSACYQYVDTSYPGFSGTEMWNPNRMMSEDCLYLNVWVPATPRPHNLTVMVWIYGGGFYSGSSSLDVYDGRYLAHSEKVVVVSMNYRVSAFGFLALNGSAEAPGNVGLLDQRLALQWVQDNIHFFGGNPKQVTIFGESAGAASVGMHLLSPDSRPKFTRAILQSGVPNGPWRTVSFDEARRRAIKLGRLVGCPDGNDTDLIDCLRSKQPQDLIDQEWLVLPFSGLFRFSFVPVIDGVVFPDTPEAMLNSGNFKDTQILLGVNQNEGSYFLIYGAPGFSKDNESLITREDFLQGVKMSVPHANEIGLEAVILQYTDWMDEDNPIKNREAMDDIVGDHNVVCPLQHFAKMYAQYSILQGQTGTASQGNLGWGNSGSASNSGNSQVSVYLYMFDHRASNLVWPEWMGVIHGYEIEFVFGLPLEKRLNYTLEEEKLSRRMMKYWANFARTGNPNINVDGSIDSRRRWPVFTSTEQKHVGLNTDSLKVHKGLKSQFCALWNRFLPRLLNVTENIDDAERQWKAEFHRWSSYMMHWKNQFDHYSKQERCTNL
Protocol: The AChE from electric eel inhibitory effects of the newly synthesized compounds were performed using microplate reader with minor modification according to the standard method. […] The activity of AChE solution was adjusted as 0.2 U/mL in Tris-HCl buffer (pH 8.0, 50 mM). For each wells, 50 μL buffer (pH 8.0, 50 mM), 125 μL 5,5-dithio-bis(2-nitrobenzoic)acid (3 mM), 25 μL of AChE (0.2 U/mL) and 25 μL of compounds were added and incubated 20 min at room temperature. After incubation, 25 μL of acetylthiocholine iodide (15 mM) was pipetted into wells. Absorbance was measured at 412 nm.

α-glycosidase = test: α-Glycosidase inhibitory effect (p-nitrophenyl-α-D glucopyranoside substrate); details: enzyme 2 U/mL, phosphate buffer pH 6.8, 37 °C; nd: not detected
Protocol: α-glycosidase inhibitory effect of the newly synthesized samples that were solvated in DMSO was performed with some minor modifications of the standard method. The activity degree of the enzyme solution was adjusted as 2 U/mL in phosphate buffer (pH 6.8, 50 mM). For each test tube, 150 μL of the sample, 150 μL of the enzyme (2 U/mL), and 150 μL of buffer were pipetted. After the incubation for 15 min at 37 °C, 150 μL of p-nitrophenyl-α-D glucopyranoside (20 mM, Sigma-Aldrich) was added and then their absorbance was monitored for 20 min at 400 nm.

Chain of tyrosinase (C7FF04 1-392 limits assumed): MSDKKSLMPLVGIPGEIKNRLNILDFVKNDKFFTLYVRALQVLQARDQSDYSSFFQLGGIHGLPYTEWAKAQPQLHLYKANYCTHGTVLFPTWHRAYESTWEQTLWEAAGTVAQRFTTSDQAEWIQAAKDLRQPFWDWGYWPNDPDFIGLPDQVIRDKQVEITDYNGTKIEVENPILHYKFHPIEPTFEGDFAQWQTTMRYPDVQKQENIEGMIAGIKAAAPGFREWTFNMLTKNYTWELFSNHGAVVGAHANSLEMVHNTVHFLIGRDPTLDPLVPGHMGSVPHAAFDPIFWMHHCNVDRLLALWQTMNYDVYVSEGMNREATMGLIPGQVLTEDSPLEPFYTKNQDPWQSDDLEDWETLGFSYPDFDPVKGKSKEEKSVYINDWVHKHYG

Row | SMILES | IC50 (tyrosinase) [µM] | IC50 (AChE) [µM] | IC50 (α-glycosidase) [µM]
1 | COc1cc(C(=O)/C=C/c2ccccc2O)ccc1O[C@@H]1O[C@H](CO)[C@@H](O)[C@H](O)[C@H]1O [7a, (2E)-1-(4-O-β-D-glucopyranosyl-3-methoxyphenyl)-3-(2-hydroxyphenyl)prop-2-en-1-one] | > 100 | > 100 | –
2 | COc1cc(C(=O)/C=C/c2cccc(O)c2)ccc1O[C@@H]1O[C@H](CO)[C@@H](O)[C@H](O)[C@H]1O [7b, (2E)-1-(4-O-β-D-glucopyranosyl-3-methoxyphenyl)-3-(3-hydroxyphenyl)prop-2-en-1-one] | 82.5 ± 4.5 | > 100 | –
3 | COc1cc(C(=O)/C=C/c2ccc(O)cc2)ccc1OC1OC(CO)C(O)C(O)C1O [7c, (2E)-1-(4-O-β-D-glucopyranosyl-3-methoxyphenyl)-3-(4-hydroxyphenyl)prop-2-en-1-one] | 11.1 ± 0.55 | > 100 | –
4 | COc1cc(C(=O)/C=C/c2ccccc2O[C@@H]2O[C@H](CO)[C@@H](O)[C@H](O)[C@H]2O)ccc1O[C@@H]1O[C@H](CO)[C@@H](O)[C@H](O)[C@H]1O [8a, (2E)-1-(4-O-β-D-glucopyranosyl-3-methoxyphenyl)-3-(2-O-β-D-glucopyranosylphenyl)-prop-2-en-1-one] | > 100 | > 100 | –
5 | COc1cc(C(=O)/C=C/c2cccc(OC3OC(CO)C(O)C(O)C3O)c2)ccc1OC1OC(CO)C(O)C(O)C1O [8b, (2E)-1-(4-O-β-D-glucopyranosyl-3-methoxyphenyl)-3-(3-O-β-D-glucopyranosylphenyl)-prop-2-en-1-one] | > 100 | 81.8 ± 3.4 | –
6 | COc1cc(C(=O)/C=C/c2ccc(O[C@@H]3O[C@H](CO)[C@@H](O)[C@H](O)[C@H]3O)cc2)ccc1O[C@@H]1O[C@H](CO)[C@@H](O)[C@H](O)[C@H]1O [8c, (2E)-1-(4-O-β-D-glucopyranosyl-3-methoxyphenyl)-3-(4-O-β-D-glucopyranosylphenyl)-prop-2-en-1-one] | 53.6 ± 2.31 | > 100 | –
7 | COc1ccccc1/C=C/C(=O)c1cc(O)cc(O[C@@H]2O[C@H](CO)[C@@H](O)[C@H](O)[C@H]2O)c1 [16a, (2E)-1-(3-O-β-D-glucopyranosyl-5-hyroxyphenyl)-3-(2-methoxyphenyl)-prop-2-en-1-one] | > 100 | > 100 | 12870 ± 90
8 | COc1cccc(/C=C/C(=O)c2cc(O)cc(O[C@@H]3O[C@H](CO)[C@@H](O)[C@H](O)[C@H]3O)c2)c1 [16b, (2E)-1-(3-O-β-D-glucopyranosyl-5-hyroxyphenyl)-3-(3-methoxyphenyl)-prop-2-en-1-one] | > 100 | > 100 | 6600 ± 50
9 | COc1ccc(/C=C/C(=O)c2cc(O)cc(O[C@@H]3O[C@H](CO)[C@@H](O)[C@H](O)[C@H]3O)c2)cc1 [16c, (2E)-1-(3-O-β-D-glucopyranosyl-5-hydroxyphenyl)-3-(4-methoxyphenyl)-prop-2-en-1-one] | > 100 | > 100 | 6800 ± 60
10 | COc1ccccc1/C=C/C(=O)c1cc(OC2OC(CO)C(O)C(O)C2O)cc(OC2OC(CO)C(O)C(O)C2O)c1 [17a, (2E)-1-(3,5-di-O-β-D-glucopyranosylphenyl)-3-(2-methoxyphenyl)-prop-2-en-1-one] | > 100 | > 100 | 23600 ± 900
11 | COc1cccc(/C=C/C(=O)c2cc(OC3OC(CO)C(O)C(O)C3O)cc(OC3OC(CO)C(O)C(O)C3O)c2)c1 [17b, (2E)-1-(3,5-di-O-β-D-glucopyranosylphenyl)-3-(3-methoxyphenyl)-prop-2-en-1-one] | > 100 | > 100 | 16600 ± 620
12 | COc1ccc(/C=C/C(=O)c2cc(OC3OC(CO)C(O)C(O)C3O)cc(OC3OC(CO)C(O)C(O)C3O)c2)cc1 [17c, (2E)-1-(3,5-di-O-β-D-glucopyranosylphenyl)-3-(4-methoxyphenyl)-prop-2-en-1-one] | 34.4 ± 1.74 | > 100 | 16300 ± 630
